Measurements reported in patent publication US20250057097A1, “PHOSPHODIESTERASES INHIBITORS TO PROMOTE IN VITRO PLANT CELL REPROGRAMMING TOWARDS PLANT EMBRYOGENESIS OR MICROCALLUS FORMATION” (CONSEJO SUPERIOR DE INVESTIGACIONES CIENTÍFICAS (CSIC), priority 2021, published 2025).

Legend:
[1] = tested on: Brassica napus microspore cotyledonary embryos; assay: Germination capacity of embryos produced in treated microspore cultures; assay type: cell-based; conditions: cotyledonary embryos from 30-40 days cultures, desiccated and cultured under germination conditions
Procedure: To evaluate the quality of embryos produced in microspore embryogenesis cultures in the presence of the inhibitors, embryo germination assays were performed. Brassica napus microspore cotyledonary embryos originated from control and treated-cultures were used for in vitro embryo germination and conversion to plantlets as previously described (Prem et al., 2012 BMC Plant Biology 12, 127). The 34-40 old dicotyledonous embryos, after air desiccation on sterile filter paper were germinated in MS (Murashige and Skoog) medium containing sucrose 2% (w/v) and gelled with 7 g/L bacteriological agar (w/v). Microspore derived-embryos were incubated for 15-20 days at 18° C. in darkness conditions till activation of radicle and plumule, and quantified in terms of percentage of embryos showing normal growth, similar to zygotic embryo germination.

[2] = tested on: Arabidopsis mesophyll protoplasts; assay: Microcallus formation (proliferation efficiency) in immobilized mesophyll protoplasts; assay type: cell-based, Arabidopsis thaliana; conditions: 48 h pulse treatment
Procedure: Seeds of an Arabidopsis thaliana line overexpressing histone 2B fused with yellow fluorescent protein (H2B-YFP) were surface-sterilized and sown on MS agar. After 24 h stratification, plates were cultured vertically for 7 days under long day conditions (16 h light-8 h dark) at 22° C. Prior to seedling harvest, plates were kept vertically in the dark at 4° C. for 24 h. Protoplasts were isolated from hypocotyl and cotyledons including primary leaves according to Dovzhenko et al., Protoplasma, 222(1-2):107-11 (2003).
Protoplast density was determined by cell counting in a Fuchs-Rosenthal chamber. For immobilization, protoplasts were mixed with equal volumes of 1.2% (w/v) low melting agarose in protoplast buffer, prewarmed at 40° C. and immediately pipetted into a 96-well plate (Ibidi, Germany), prewarmed at 34° C. with 125 μL per well. The plate was immediately centrifuged (2 min, 30 g) and incubated at 4° C. for 5 min, 200 μL of cultivation medium was added on top of each well and the protoplasts were cultivated at 22° C. in the dark. Cultivation medium was composed of macro and micro elements based on Kao K N and Michayluk M R. Planta., 126(2):105-10 (1975), supplemented with 2 μM of 2,4-D and 1 μM of thidiazurone. For PDE inhibitors treatments, PDE inhibitors were dissolved in DMSO and added to the medium with the concentration given (liquid media). […]
An automated microscope (MORE1, Till I.D. GmbH, Munich, Germany) was used for the analysis of protoplast development and for the detection of YFP fluorescence. Transillumination was recorded with 10×0.45 and 20×0.8 objectives (Zeiss); epifluorescence was recorded after excitation with single-mode diode lasers (iBeam smart, Toptica) with excitation of 550 nm (YFP)/green emission filter. […]
Images were recorded immediately after immobilization and 10 days after immobilization (DAIs). […] Quantification of proliferating cells was performed by exploiting shape differences of dividing or closely adjacent nuclei after the application of EDM binary operations on epifluorescence images in comparison with circular fluorescence signals from non-dividing mononucleic cells (Brocher Int. J. Image Process, 8, 30-48 (2014)). Corresponding cellular shape parameters from proliferating microcalli were determined from selecting segmented transillumination images after filtering with processed epiflourescence images using the BioVoxxel binary feature extraction function.
PDE inhibitors were tested for their capability to increase the proliferation rate of Arabidopsis protoplasts isolated from leaves. […] Microscopic images were recorded 10 days after immobilization and proliferating microcalli were identified by the presence of multiple fluorescing nuclei visualized by exploiting the nuclear-encoded H2B-YFP marker (see FIG. 3). […]

COc1ccc(-c2nc(-c3ccccc3Br)[nH]c2-c2ccc(OC)cc2)cc1 [AGF4.17, 2-(2-Bromophenyl)-4,5-bis(4-methoxyphenyl)-1H-imidazole]
germination capacity / quality of embryos [1]: well-developed roots and hypocotyls in most embryos
induction of microcallus formation compared with the untreated control ([2]; 10 μM): 250%

O=C(Nc1c(Cl)cncc1Cl)c1ccc(OC(F)F)c(OCC2CC2)c1 [FDA4.21, 3-(cyclopropylmethoxy)-N-(3,5-dichloropyridin-4-yl)-4-(difluoromethoxy) benzamide, reference compound]
germination capacity / quality of embryos [1]: well-developed roots and hypocotyls in most embryos

COc1ccc(C2CNC(=O)C2)cc1OC1CCCC1 (stereo not drawn) [FDA4.22, 4-(3-cyclopentyloxy-4-methoxyphenyl)pyrrolidin-2-one, reference compound]
germination capacity / quality of embryos [1]: well-developed roots and hypocotyls in most embryos

Cc1oc(-c2ccccc2F)nc1CN1CCC[C@@H](C(=O)NCc2cccc(Cl)c2)C1 [JHD1.48, (R)—N-(3-chlorobenzyl)-1-((2-(2-fluorophenyl)-5-methyloxazol-4-yl)methyl) piperidin-3-carboxamide]
germination capacity / quality of embryos [1]: well-developed roots and hypocotyls in most embryos
microcalli formation rate increased by, relative to the untreated control ([2]; 10 μM): 50%

CSc1nc2ccccc2c(=O)n1-c1c(F)cccc1F [TC2.43, 3-(2,6-Difluorophenyl)-2-methylthio-4-oxo-3,4-dihydroquinazoline]
germination capacity / quality of embryos [1]: well-developed roots and hypocotyls in most embryos
increased rate of microcalli formation relative to the untreated control ([2]; 1 μM): 140%
microcalli formation rate increased by, relative to the untreated control ([2]; 10 μM): 200%
